Molecular target: Cyclin-dependent kinase 12 (Homo sapiens, UniProt Q9NYV4)
Test: Not found
From the text: Not found

Cyclin-dependent kinase 12, sequence (Q9NYV4 whole entry): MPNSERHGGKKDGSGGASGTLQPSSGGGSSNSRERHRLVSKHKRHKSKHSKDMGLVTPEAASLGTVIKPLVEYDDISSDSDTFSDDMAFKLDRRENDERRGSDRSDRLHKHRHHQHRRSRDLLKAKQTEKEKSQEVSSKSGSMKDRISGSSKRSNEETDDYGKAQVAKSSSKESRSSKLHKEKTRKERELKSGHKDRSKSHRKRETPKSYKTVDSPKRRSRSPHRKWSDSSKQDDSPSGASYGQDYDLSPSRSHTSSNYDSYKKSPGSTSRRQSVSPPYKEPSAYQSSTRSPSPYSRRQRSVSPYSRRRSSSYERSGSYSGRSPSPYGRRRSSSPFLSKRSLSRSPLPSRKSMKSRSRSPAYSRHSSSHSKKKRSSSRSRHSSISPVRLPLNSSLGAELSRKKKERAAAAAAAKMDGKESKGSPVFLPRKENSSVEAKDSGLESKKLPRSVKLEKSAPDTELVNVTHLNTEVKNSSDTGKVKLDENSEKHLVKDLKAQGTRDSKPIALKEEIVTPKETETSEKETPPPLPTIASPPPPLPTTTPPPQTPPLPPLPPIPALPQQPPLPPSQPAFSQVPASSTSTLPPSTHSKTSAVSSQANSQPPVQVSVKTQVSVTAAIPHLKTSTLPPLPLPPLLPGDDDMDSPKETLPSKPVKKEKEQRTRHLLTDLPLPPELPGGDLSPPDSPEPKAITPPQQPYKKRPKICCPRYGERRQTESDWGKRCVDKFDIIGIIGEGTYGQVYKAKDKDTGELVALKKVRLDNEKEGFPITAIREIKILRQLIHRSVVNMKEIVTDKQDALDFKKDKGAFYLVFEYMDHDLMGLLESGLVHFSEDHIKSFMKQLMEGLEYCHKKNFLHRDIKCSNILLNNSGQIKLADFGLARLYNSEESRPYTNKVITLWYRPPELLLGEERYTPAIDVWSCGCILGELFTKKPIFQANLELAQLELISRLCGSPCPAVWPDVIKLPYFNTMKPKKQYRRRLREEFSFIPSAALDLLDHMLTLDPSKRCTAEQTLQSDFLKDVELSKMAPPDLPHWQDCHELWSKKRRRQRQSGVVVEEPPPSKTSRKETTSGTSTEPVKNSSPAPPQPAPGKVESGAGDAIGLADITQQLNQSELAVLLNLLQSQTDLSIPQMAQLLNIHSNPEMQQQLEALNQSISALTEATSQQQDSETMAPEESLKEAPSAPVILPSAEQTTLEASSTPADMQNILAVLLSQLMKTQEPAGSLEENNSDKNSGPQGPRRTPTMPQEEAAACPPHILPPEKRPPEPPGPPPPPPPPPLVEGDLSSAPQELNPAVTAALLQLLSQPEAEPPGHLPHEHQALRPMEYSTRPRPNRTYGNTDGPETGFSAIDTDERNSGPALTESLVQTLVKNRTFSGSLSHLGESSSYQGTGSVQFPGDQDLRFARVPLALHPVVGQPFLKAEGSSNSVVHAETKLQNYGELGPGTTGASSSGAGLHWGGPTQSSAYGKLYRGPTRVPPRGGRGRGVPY

Structure (SMILES) | IC50 [nM]
CN1CC(C2C=NN3C(NCc4nc5cc(Cl)c(Cl)cc5[nH]4)=NC(N4CCOCC4)=NC23)C=N1 (configuration not stated) [US20250042903, Compound 1] | 554
FC(F)N1CC(C2C=NN3C(NCc4nc5cc(Cl)c(Cl)cc5[nH]4)=NC(N4CCOCC4)=NC23)C=N1 (configuration not stated) [US20250042903, Compound 2] | 262

From BindingDB's records for patent US20250042903 (H. Lee Moffitt Cancer Center and Research Institute, 2025)
